Molecules are shown by their SMILES. In brackets after ≈: the same amount, converted by molar mass. Like-named read-outs stand apart in the source and are kept apart here.

Data set [1] concerns Cryptococcus neoformans. The experiment in a line: MIC against C. neoformans (NCCLS broth dilution). In kind it is cell-based. Conditions: for MIC: Cryptococcus neoformans, Table 1, over 90% reduction of growth, 24-168 h at 35° C., read-out: Minimum inhibitory concentration, C. neoformans. From the text: (§1) To determine the antifungal activity of these compounds we screened for their minimum inhibitory concentrations (MIC) against the major dermatophytes that cause onychomycosis, T. rubrum and T. mentagrophytes, and against the yeasts and molds C. albicans, C. neoformans and A. fumigatus to test for their broad spectrum activity. The antifungal agent ciclopirox, currently in use for the topical treatment of onychomycosis, was used as a reference.
(§2) All MIC testing against Trichophyton rubrum, Trichophyton mentagrophytes, Candida albicans, Cryptococcus neoformans and Aspergillus fumigatus were determined following the National Committee for Clinical Laboratory Standards (NCCLS) guidelines for antimicrobial testing of yeasts and filamentous fungi.^i,ii
(§3) Two-fold serial dilutions of the test compounds were prepared in 96-well plates. […] Pfaller M A, Chaturvedi V, Espinel-Ingroff A, Ghannoum M A, Gosey L L, Odds F C, Rex J H, Rinaldi M G, Sheehan D J, Walsh T J, Warnock D W. NCCLS publication M27-A2—Reference Method for Broth Dilution Antifungal Susceptibility Testing of Yeasts; Approved Standard—Second Edition. […] Pfaller M A, Chaturvedi V, Espinel-Ingroff A, Ghannoum M A, Gosey L L, Odds F C, Rex J H, Rinaldi M G, Sheehan D J, Walsh T J, Warnock D W. NCCLS publication M38-A—Reference Method for Broth Dilution Antifungal Susceptibility Testing of Filamentous Fungi; Approved Standard.

Data set [2] deals with Trichophyton mentagrophytes. The experiment in a line: MIC against T. mentagrophytes (NCCLS broth dilution). In kind it is cell-based. The following applies: for MIC: Trichophyton mentagrophytes, Table 1, over 90% reduction of growth, 24-168 h at 35° C., read-out: Minimum inhibitory concentration, T. mentagrophytes.
Description: as §1, §2, §3

In data set [3] the test system is Trichophyton rubrum. As to the kind of experiment: MIC against T. rubrum (NCCLS broth dilution). In kind it is cell-based. Conditions: for MIC: Trichophyton rubrum, Table 1, over 90% reduction of growth, 24-168 h at 35° C., read-out: Minimum inhibitory concentration, T. rubrum.
Description: as §1, §2, §3

Data set [4] relates to Aspergillus fumigatus. As to the kind of experiment: MIC against A. fumigatus (NCCLS broth dilution). It counts as cell-based. Conditions: for MIC: Aspergillus fumigatus, Table 1, over 90% reduction of growth, 24-168 h at 35° C., read-out: Minimum inhibitory concentration, A. fumigatus.
Description: as §1, §2, §3

Data set [5] concerns T. rubrum, T. mentagrophytes, C. albicans, C. neoformans and A. fumigatus. As to the kind of experiment: MIC against the panel of fungi tested. In kind it is cell-based. The following applies: for fold increase in potency: 5-fluoro compound relative to its R^i = H analog (9b vs 9a, 10b vs 10a), strains tested.
Description: MIC, or minimum inhibitory concentration, is the point where compound stops more than 90% of cell growth relative to an untreated control.
as §1, §2
Briefly, compounds were dissolved in DMSO and diluted in sterile water to give a working stock. Two-fold serial dilutions of the test compounds were prepared in 96-well plates. The plates were inoculated with the fungal suspensions to give a final inoculum size of 0.5−2.5×10^3 cells/mL for yeasts or 0.4−5×10^4 CFU/mL for filamentous fungi and then incubated for 24-168 h at 35° C. […] Pfaller M A, Chaturvedi V, Espinel-Ingroff A, Ghannoum M A, Gosey L L, Odds F C, Rex J H, Rinaldi M G, Sheehan D J, Walsh T J, Warnock D W. NCCLS publication M27-A2—Reference Method for Broth Dilution Antifungal Susceptibility Testing of Yeasts; Approved Standard—Second Edition. Wayne, P A: NCCLS; 2002 (Vol. 22, No. 15). • ii. Pfaller M A, Chaturvedi V, Espinel-Ingroff A, Ghannoum M A, Gosey L L, Odds F C, Rex J H, Rinaldi M G, Sheehan D J, Walsh T J, Warnock D W. NCCLS publication M38-A—Reference Method for Broth Dilution Antifungal Susceptibility Testing of Filamentous Fungi; Approved Standard. Wayne, P A: NCCLS; 2002 (Vol. 22, No. 16).

For data set [6], the system named is Candida albicans. The experiment in a line: MIC against C. albicans (NCCLS broth dilution). In kind it is cell-based. Conditions: for MIC: Candida albicans, Table 1, over 90% reduction of growth, 24-168 h at 35° C., read-out: Minimum inhibitory concentration, C. albicans.
Description: as §1, §2, §3

A short description of data set [7]: Penetration of the nail plate. It counts as in vitro ADME. Conditions: result in words.
A short description of data set [8]: LogP. It counts as physicochemical. From the text:
(§4) Further discussion, and assays for testing log P, molecular weight and water solubility are described in U.S. patent application Ser. Nos. 11/357,687 and 11/505,591, which are incorporated herein by reference.

The nature of data set [9]: Plasma protein binding. In kind it is in vitro ADME.
Data set [10] in a line: Water solubility. In kind it is physicochemical.
Description: as §4

Compound `Fc1ccc2c(c1)COB2c1ccccc1` [9b, 1,3-Dihydro-5-fluoro-1-phenyl-2,1-benzoxaborole] returned a melting point of 90 to 99 °C. In data set [1], the MIC came out at 2 µg/mL (≈ 9.43 µM). In addition, the “Minimum inhibitory concentration, C. neoformans” value in [1] (Table 2, 1-phenyl series (9)) was found to be 2 µg/mL (≈ 9.43 µM). Also, the “Minimum inhibitory concentration, T. mentagrophytes” value in data set [2] (Table 2, 1-phenyl series (9)) came to 2 µg/mL (≈ 9.43 µM). Also, the MIC in [2] is 2 µg/mL (≈ 9.43 µM). For the same compound, the “Minimum inhibitory concentration, T. rubrum” value in [3] (Table 2, 1-phenyl series (9)) was 1 µg/mL (≈ 4.72 µM). Also, in data set [3], the MIC stood at 1 µg/mL (≈ 4.72 µM). Also, in data set [4], the MIC was 2 µg/mL (≈ 9.43 µM). Further, the “Minimum inhibitory concentration, A. fumigatus” value in [4] (Table 2, 1-phenyl series (9)) was found to be 2 µg/mL (≈ 9.43 µM). Moreover, the “fold increase in potency” value in data set [5] was 2-8 fold. For the same compound, in data set [6], the MIC worked out at 0.5 µg/mL (≈ 2.36 µM). In addition, the “Minimum inhibitory concentration, C. albicans” value in data set [6] (Table 2, 1-phenyl series (9)) was found to be 0.5 µg/mL (≈ 2.36 µM).
For `Fc1ccc2c(c1)COB2C=Cc1ccccc1` [10b, 1,3-Dihydro-5-fluoro-1-styryl-2,1-benzoxaborole], the melting point lay within 84 to 86 °C. Further, the MIC in data set [1] came to 0.5 µg/mL (≈ 2.1 µM). Further, the MIC in [2] is 2 µg/mL (≈ 8.4 µM). For the same compound, the MIC in data set [3] was at most 1 µg/mL. In data set [4], the MIC was 1 µg/mL (≈ 4.2 µM). In [5], the “fold increase in potency” value was 4-8 fold. The MIC in data set [6] came out at 0.5 µg/mL (≈ 2.1 µM).
On to `Cc1cc(C2CCCCC2)n(O)c(=O)c1` [Ciclopirox, reference compound], for which the MIC in data set [1] was determined as 0.5 µg/mL (≈ 2.41 µM); in [2] it was 0.5 µg/mL (≈ 2.41 µM); in data set [3] it was 0.5 µg/mL (≈ 2.41 µM); in [4], 1 µg/mL (≈ 4.82 µM); in data set [6] it was 0.5 µg/mL (≈ 2.41 µM). Further, in data set [7], the “penetration of the nail plate” value is reported as “penetrates the nail plate poorly”.
Turning to `Fc1ccc2c(c1)COB2c1ccccc1` [Compound 3], in [7], the “penetration of the nail plate” value is “penetrates the nail plate poorly”. Besides, the logP in data set [8] (table of b228, read-out: eLogP) is 3.55.
As for `Fc1ccc2c(c1)COB2c1cccnc1` [compound 15, 3-(1,3-Dihydro-5-fluoro-2,1-benzoxaborol-1-yl)pyridine], the melting point is 210 to 212 °C. In data set [1], the MIC came to 16 µg/mL (≈ 75.1 µM). Moreover, in data set [2], the MIC turned out to be 32 µg/mL (≈ 150 µM). For the same compound, the MIC in [3] was found to be 16 µg/mL (≈ 75.1 µM). In data set [4], the MIC was determined as 16 µg/mL (≈ 75.1 µM). In data set [5] (T. rubrum and T. mentagrophytes, relative to 9b), the “fold decrease in activity against the dermatophytes” value was 16-64 fold. For the same compound, in [5] (relative to 9b), the “fold reduction in activity against C. neoformans and A. fumigatus” value was 4 fold. Also, the MIC in [6] stood at 4 µg/mL (≈ 18.8 µM). Moreover, the “change in activity against C. albicans” value in data set [6] (relative to 9b, in words) was “no change in activity”.
Take `OB1OCc2cc(F)ccc21` [drawing 88]: the logP in data set [8] (read-out: LogP) was 1.9. In addition, the free fraction (fraction unbound) in data set [9] is 0.34. In addition, the solubility in data set [10] is over 100 µg/mL.
For `OB1OCc2cc(Cl)ccc21` [drawing 89], in that order: 2.3, 0.17 and over 100 µg/mL.
